From ChEMBL document CHEMBL5380807, “Imidazo[1,2-a]Pyridine Derivatives as Novel Dual-Target Inhibitors of ABCB1 and ABCG2 for Reversing Multidrug Resistance” (J Med Chem, 2023)
Active and inactive are the calls of the source. The calls are words filed in the database; no cut-off is given here.

How the values were obtained:
[1] = Cytotoxicity against human HEK293 cells expressing ABCG2 assessed as reduction in cell viability incubated for 72 hrs by SRB assay; type: toxicity, cell-based
[2] = Cytotoxicity against human HEK293 cells assessed as reduction in cell viability incubated for 72 hrs by SRB assay; type: toxicity, cell-based
[3] = target: T1, Broad substrate specificity ATP-binding cassette transporter ABCG2 (Homo sapiens, UniProt Q9UNQ0); experiment: Inhibition of ABCG2 (unknown origin) ATPase activity assessed as decrease in luminescence by firefly luciferase reporter assay
T1 sequence (Q9UNQ0 whole entry): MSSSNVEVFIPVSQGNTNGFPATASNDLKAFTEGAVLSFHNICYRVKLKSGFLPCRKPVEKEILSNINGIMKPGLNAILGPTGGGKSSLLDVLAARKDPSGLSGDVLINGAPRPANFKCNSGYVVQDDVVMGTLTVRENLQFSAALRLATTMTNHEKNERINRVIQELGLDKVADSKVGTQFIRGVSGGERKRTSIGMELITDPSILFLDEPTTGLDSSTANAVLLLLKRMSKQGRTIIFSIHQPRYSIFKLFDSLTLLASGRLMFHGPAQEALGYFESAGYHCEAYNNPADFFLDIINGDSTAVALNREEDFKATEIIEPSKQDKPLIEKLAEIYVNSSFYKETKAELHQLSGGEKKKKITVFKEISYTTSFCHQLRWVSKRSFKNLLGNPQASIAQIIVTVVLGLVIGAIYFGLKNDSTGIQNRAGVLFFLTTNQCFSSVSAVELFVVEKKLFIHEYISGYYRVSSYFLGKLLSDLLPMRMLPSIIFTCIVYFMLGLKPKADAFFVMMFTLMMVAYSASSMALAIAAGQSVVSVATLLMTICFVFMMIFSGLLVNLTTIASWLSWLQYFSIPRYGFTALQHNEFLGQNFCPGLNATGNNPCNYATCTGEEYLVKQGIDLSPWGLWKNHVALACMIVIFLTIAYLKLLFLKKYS

[4] = target: ATP-dependent translocase ABCB1 (Homo sapiens, UniProt P08183); experiment: Inhibition of ABCB1 (unknown origin) ATPase activity assessed as decrease in luminescence by firefly luciferase reporter assay
[5] = tested on: K562; experiment: Reversal of ABCB1 mediated adriamycin resistance in human K562 cells assessed as reduction in survival rate at 5 uM preincubated for 1 hrs followed by adriamycin addition and measured after 72 hrs by MTS assay; type: functional, cell-based; details: time 73.0 hrs
[6] = tested on: K562/A02; experiment: Reversal of ABCB1 mediated adriamycin resistance in human K562/A02 cells overexpressing ABCB1 assessed as reduction in survival rate at 1 uM preincubated for 1 hrs followed by adriamycin addition and measured after 72 hrs by MTS assay; type: functional
[7] = tested on: K562; experiment: Reversal of ABCB1 mediated adriamycin resistance in human K562 cells assessed as reduction in survival rate at 1 uM preincubated for 1 hrs followed by adriamycin addition and measured after 72 hrs by MTS assay; type: functional, cell-based; details: time 73.0 hrs
[8] = tested on: K562/A02; experiment: Reversal of ABCB1 mediated adriamycin resistance in human K562/A02 cells overexpressing ABCB1 assessed as reduction in survival rate at 5 uM preincubated for 1 hrs followed by adriamycin addition and measured after 72 hrs by MTS assay; type: functional
[9] = tested on: K562; experiment: Cytotoxicity against human K562 cells assessed as decrease in cell survival rate at 5 uM incubated for 72 hrs by MTS assay; type: toxicity, cell-based; details: k562, 72 h
[10] = tested on: K562/A02; experiment: Cytotoxicity against human K562/A02 cells overexpressing ABCB1 assessed as decrease in cell survival rate at 5 uM incubated for 72 hrs by MTS assay; type: toxicity, cell-based; details: k562/a02, 72 h
[11] = Cytotoxicity against human K562 cells assessed as decrease in cell survival rate incubated for 72 hrs by MTS assay; type: toxicity, cell-based
[12] = tested on: K562/A02; experiment: Reversal of ABCB1 mediated adriamycin resistance in human K562/A02 overexpressing ABCB1 assessed as decrease in survival rate at 5 uM preincubated for 1 hrs followed by adriamycin addition and measured after 72 hrs by MTS assay; type: functional
[13] = tested on: K562; experiment: Reversal of ABCB1 mediated adriamycin resistance in human K562 assessed as decrease in survival rate at 1.25 to 5 uM preincubated for 1 hrs followed by adriamycin addition and measured after 72 hrs by MTS assay; type: functional, cell-based; details: dose 1.25-5 µM, time 73.0 hrs
[14] = tested on: K562/A02; experiment: Reversal of ABCB1 mediated adriamycin resistance in human K562/A02 overexpressing ABCB1 assessed as decrease in survival rate at 1.25 to 5 uM preincubated for 1 hrs followed by adriamycin addition and measured after 72 hrs by MTS assay; type: functional, cell-based; details: dose 1.25-5 µM, time 73.0 hrs
[15] = tested on: HEK293; experiment: Reversal of ABCG2 mediated mitoxantrone resistance in human HEK293 overexpressing ABCG2 assessed as decrease in survival rate at 1.25 to 5 uM preincubated for 1 hrs followed by mitoxantrone addition and measured after 72 hrs by SRB assay; type: functional, cell-based; details: dose 1.25-5 µM, time 73.0 hrs
[16] = tested on: HEK293; experiment: Reversal of ABCG2 mediated mitoxantrone resistance in human HEK293 assessed as decrease in survival rate at 1.25 to 5 uM preincubated for 1 hrs followed by mitoxantrone addition and measured after 72 hrs by SRB assay; type: functional, cell-based; details: dose 1.25-5 µM, time 73.0 hrs
[17] = Cytotoxicity against human K562/A02 cells overexpressing ABCB1 assessed as decrease in cell survival rate incubated for 72 hrs by MTS assay; type: toxicity, cell-based
[18] = tested on: K562/A02; experiment: Reversal of ABCB1 mediated multidrug resistance in human K562/A02 cells overexpressing ABCB1 assessed as decrease in survival rate at 5 uM preincubated for 1 hrs followed by vincristine addition and measured after 72 hrs by MTS assay; type: functional; details: time 73 hrs
[19] = tested on: K562; experiment: Antitumor activity against human K562 cells xenografted in BALB/c mouse assessed as tumor growth inhibition at 20 mg/kg, ip QD for 14 days in presence of adriamycin; type: functional, organism-based; details: time 14.0 day

ATP-dependent translocase ABCB1, sequence (P08183 whole entry): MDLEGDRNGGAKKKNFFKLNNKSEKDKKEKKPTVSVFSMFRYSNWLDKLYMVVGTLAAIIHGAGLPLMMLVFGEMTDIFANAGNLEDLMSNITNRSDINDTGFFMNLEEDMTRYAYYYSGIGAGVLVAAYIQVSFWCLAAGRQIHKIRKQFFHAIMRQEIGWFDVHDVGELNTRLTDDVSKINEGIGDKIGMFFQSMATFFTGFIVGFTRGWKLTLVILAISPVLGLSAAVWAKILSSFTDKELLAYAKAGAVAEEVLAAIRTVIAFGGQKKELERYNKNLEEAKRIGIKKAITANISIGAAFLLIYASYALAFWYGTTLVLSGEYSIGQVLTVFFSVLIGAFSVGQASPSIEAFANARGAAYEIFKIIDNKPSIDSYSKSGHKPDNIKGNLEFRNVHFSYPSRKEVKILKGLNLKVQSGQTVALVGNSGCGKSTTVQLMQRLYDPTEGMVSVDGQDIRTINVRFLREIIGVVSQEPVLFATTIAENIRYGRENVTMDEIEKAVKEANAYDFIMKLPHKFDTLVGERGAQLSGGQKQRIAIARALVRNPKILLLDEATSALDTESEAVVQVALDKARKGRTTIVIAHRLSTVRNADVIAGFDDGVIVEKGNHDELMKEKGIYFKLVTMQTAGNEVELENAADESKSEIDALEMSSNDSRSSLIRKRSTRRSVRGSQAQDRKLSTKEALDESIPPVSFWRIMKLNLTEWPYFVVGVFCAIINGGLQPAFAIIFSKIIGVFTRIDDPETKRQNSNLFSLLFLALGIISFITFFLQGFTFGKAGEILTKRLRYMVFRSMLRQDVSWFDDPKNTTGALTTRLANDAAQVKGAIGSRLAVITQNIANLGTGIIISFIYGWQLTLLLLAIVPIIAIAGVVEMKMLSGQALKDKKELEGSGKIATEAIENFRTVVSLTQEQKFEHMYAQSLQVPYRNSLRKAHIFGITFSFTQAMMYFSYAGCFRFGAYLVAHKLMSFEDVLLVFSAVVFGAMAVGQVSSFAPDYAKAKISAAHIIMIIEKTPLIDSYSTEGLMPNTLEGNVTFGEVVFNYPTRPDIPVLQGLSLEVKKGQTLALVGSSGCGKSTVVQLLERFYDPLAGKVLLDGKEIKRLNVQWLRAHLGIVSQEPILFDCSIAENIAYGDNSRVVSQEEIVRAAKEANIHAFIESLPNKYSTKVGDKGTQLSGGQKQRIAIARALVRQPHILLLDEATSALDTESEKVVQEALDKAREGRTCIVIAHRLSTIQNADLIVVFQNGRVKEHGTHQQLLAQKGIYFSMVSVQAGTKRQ

Compound	Activity [5]	Activity ([6]; time 73.0 hrs)	Activity [7]	Activity ([8]; time 73.0 hrs)	Activity [9]	Activity [10]	also measured
O=C1c2c(O)ccc(O)c2C(=O)c2c(NCCNCCO)ccc(NCCNCCO)c21 [MITOXANTRONE]	–	–	–	–	–	–	IC50 at 72 h [1]: 1.72 µM; IC50 at 72 h [2]: 0.04 µM
SODIUM VANADATE	–	–	–	–	–	–	inhibition (INH) [3]: Active; inhibition (INH) [4]: Active
COc1ccc(COCc2c(-c3ccc(NC(=O)CN4CCc5cc(OC)c(OC)cc5C4)cc3)nc3ccccn23)cc1	inactive	Active	inactive	Active	Non-Toxic	Non-Toxic	–
C=CCN(CC=C)CC(=O)Nc1ccc(-c2nc3ccccn3c2CN2CCN(c3ccccc3)CC2)cc1	–	–	–	–	–	–	IC50 at 72 h [11]: > 100 µM; Activity [12]: <30%; IC50 at 72 h [1]: 18.5 µM; Activity [13]: inactive; Activity [14]: Active; Activity [15]: Active; Activity [16]: inactive; IC50 at 72 h [2]: 11.8 µM; IC50 at 72 h [17]: > 100 µM
C=CCN(CC=C)CC(=O)Nc1ccc(-c2nc3ccccn3c2CN2CCc3cc(OC)c(OC)cc3C2)cc1	–	–	–	–	–	–	IC50 at 72 h [11]: 45.3 µM; Activity [12]: <30%; IC50 at 72 h [1]: 11.5 µM; Activity [13]: inactive; Activity [14]: Active; Activity [15]: Active; Activity [16]: inactive; IC50 at 72 h [2]: 37.6 µM; IC50 at 72 h [17]: 65.2 µM
COc1cc2c(cc1OC)CN(CC(=O)Nc1ccc(-c3nc4ccccn4c3CN3CCCCC3)cc1)CC2	Active	Active	Active	Active	Non-Toxic	Non-Toxic	–
CCN(CC)Cc1c(-c2ccc(NC(=O)CN3CCc4cc(OC)c(OC)cc4C3)cc2)nc2ccccn12	inactive	Active	inactive	Active	Non-Toxic	Non-Toxic	–
COc1cc2c(cc1OC)CN(CC(=O)Nc1ccc(-c3nc4ccccn4c3CO)cc1)CC2	inactive	inactive	inactive	inactive	Non-Toxic	Non-Toxic	–
COc1cc2c(cc1OC)CN(CC(=O)Nc1ccc(-c3nc4ccccn4c3COCc3ccccc3Cl)cc1)CC2	inactive	Active	inactive	Active	Non-Toxic	Non-Toxic	–
COc1cc2c(cc1OC)CN(CC(=O)Nc1ccc(-c3nc4ccccn4c3CN3CCN(c4ccccc4)CC3)cc1)CC2	inactive	–	inactive	–	Non-Toxic	Non-Toxic	IC50 at 72 h [11]: > 100 µM; Activity [13]: inactive; Activity ([6]; time 73 hrs): 59%; Activity [14]: Active; Activity ([8]; time 73 hrs): 33%; IC50 at 72 h [17]: > 100 µM
COc1ccc(CCN(C)CCCC(C#N)(c2ccc(OC)c(OC)c2)C(C)C)cc1OC (centres undefined)	Active	–	Active	–	–	–	Activity [18]: 56%; Activity [19]: inactive; Activity ([6]; time 73 hrs): 70%; Activity ([8]; time 73 hrs): 51%; inhibition (INH) [4]: Not Active
CC(=O)N1CCN(c2ccc(OCC3COC(Cn4ccnc4)(c4ccc(Cl)cc4Cl)O3)cc2)CC1 (centres undefined)	–	–	–	–	–	–	Activity [15]: Active; Activity [16]: inactive
COc1cc2c(cc1OC)CN(CC(=O)Nc1ccc(-c3nc4ccccn4c3CN3CCc4cc(OC)c(OC)cc4C3)cc1)CC2	inactive	–	inactive	–	Non-Toxic	Non-Toxic	IC50 at 72 h [11]: > 100 µM; Activity [13]: inactive; Activity ([6]; time 73 hrs): 61%; Activity [14]: Active; Activity ([8]; time 73 hrs): 39%; IC50 at 72 h [17]: > 100 µM
COc1ccc(/C=C/C(=O)Nc2ccc(-c3nc4ccccn4c3CN3CCN(c4ccccc4)CC3)cc2)cc1	–	–	–	–	–	–	IC50 at 72 h [11]: > 100 µM; Activity [12]: <30%; IC50 at 72 h [1]: 12.4 µM; Activity [13]: inactive; Activity [14]: Active; Activity [15]: Active; Activity [16]: inactive; IC50 at 72 h [2]: 21 µM; IC50 at 72 h [17]: > 100 µM
COc1cc2c(cc1OC)CN(CC(=O)Nc1ccc(-c3cn4ccccc4n3)cc1)CC2	inactive	Active	inactive	Active	Non-Toxic	Non-Toxic	–
CC[C@@]1(O)C(=O)OCc2c1cc1n(c2=O)Cc2cc3c(CN(C)C)c(O)ccc3nc2-1 [TOPOTECAN]	–	–	–	–	–	–	inhibition (INH) [3]: Not Active; inhibition (INH) [4]: Not Active
COc1cc2c(cc1OC)CN(CC(=O)Nc1ccc(-c3nc4ccccn4c3CN3CCC(=O)CC3)cc1)CC2	inactive	Active	inactive	Active	Non-Toxic	Non-Toxic	–
